Earlier results in paper PMC7094298 (Febs Letters, 2009).
Entries after “also recorded” stand apart in the source; their conditions may differ.

Assays:
[1] = biological target: SARS-CoV 3CLpro (Severe acute respiratory syndrome coronavirus, UniProt P0C6X7)
[2] = test system: RV and other picornaviral 3Cpro

Question: For CCOC(=O)/C=C/[C@H](C[C@@H]1CCNC1=O)NC(=O)[C@@H](CC(=O)[C@@H](NC(=O)c1cc(C)on1)C(C)C)Cc1ccc(F)cc1 [AG7088], which “inhibition of SARS-CoV 3CLpro” value [1] is on record?
Answer: did not inhibit; also recorded: failed to inhibit

Question: And the “inhibition of RV and other picornaviral 3Cpro” value [2]?
Answer: potent inhibitor
